Entries after “also recorded” stand apart in the source; their conditions may differ.

Data set [1] concerns male patients with Obstructive Sleep Apnea-Hypopnea Syndrome (OSAHS). Put plainly: Phase 2 clinical trial: change from baseline in Apnea Hypopnea Index (AHI) by overnight polysomnography. Format: in vivo, human. Conditions: single intranasal dose 18 mg. On the procedure:
(§1) This was a single intranasal dose, multi-center, randomized, placebo-controlled, double-blind, 2-way crossover study with two treatment periods in male patients with Obstructive Sleep Apnea-Hypopnea Syndrome (OSAHS).
(§2) After a screening phase of up to 21 days, the patients received single doses of 18 mg of compound 1 administered as 3 actuations of 100 μL of study drug into each nostril (9 mg/nostril) or matching placebo at bedtime in each study period. The single nasal doses were administered in a sitting position. There was a wash-out period of 2 days to 3 weeks between the two study periods. The duration of the study per patient ranged from 13 days to a maximum of 8 weeks.
Efficacy was assessed in a blinded fashion using overnight polysomnographic recordings (PSG) which were centrally read and interpreted. The central readers were blinded with regard to the treatment sequence the patients received and with regard to potential safety findings. Maintenance of Wakefulness Tests (MWT) and Stanford Sleepiness Scores (SSS) were also used for the assessment of Excessive Daytime Sleepiness (EDS), and plasma concentrations of compound 1 were assessed at baseline and approximately 10 hours after study drug administration (data not shown). […]
Patients were analyzed using the treatment they actually received at each period, irrespective of the treatment sequence they were randomized to. […]

Data set [2] concerns upper airway collapsibility. Conditions: anesthetized pigs, administered topically to the upper airway; Wirth et al. 2013; cited from earlier work.
Data set [3] is described as follows: Compound 1 drug substance batch analysis (particle size distribution). The format is physicochemical. The text has this: The following compound 1 batches were manufactured (Table 31).
In data set [4] the test system is male patients with Obstructive Sleep Apnea-Hypopnea Syndrome (OSAHS). Put plainly: Phase 2 clinical trial: treatment emergent adverse events (TEAE). Format: in vivo, human. Conditions: single intranasal dose 18 mg, n = 38. On the procedure:
as §1, §2
The Safety population was defined as all randomized patients exposed to the study medication, regardless of the amount of treatment administered. Patients were analyzed using the treatment they actually received at each period.

Data set [5] in a line: Compound 1 drug substance stability (ICH storage conditions). Conditions: long term conditions 25±2° C./60±5%, data not shown. The format is physicochemical. The protocol:
A stability study for compound 1 batch H (non-micronized, GMP) was initiated as per ICH storage conditions described in Table 36.
Results for 1 month of storage at 25±2° C./60±5% RH, 30±2° C./65±5% RH and at 40±2° C./75±5% RH are available to date.
A stability study for compound 1 batch L and M (micronized to d90<10 μm and d90<35 μm respectively, scheduled GMP sublots of compound 1 batch H) will be initiated as per ICH reference storage conditions described in Table 37 and Table 38.
To date, only limited data are available on compound 1 drug substance both non-micronized and micronized.

On to `COc1ccc(CC(=O)NCc2ccccc2-c2ccccc2C(=O)NCCc2cccnc2)cc1` [Compound 1, 2′-{[2-(4-methoxy-phenyl)-acetylamino]-methyl}-biphenyl-2-carboxylic acid (2-pyridin-3-yl-ethyl)-amide], for which the “AHI (num/hr) LS mean difference, compound 1 versus placebo, change from baseline” value in data set [1] (ITT population) is −3.78 num/hr. Further, the “primary efficacy outcome (reduction of AHI versus placebo)” value in data set [1] was “not statistically significant; also recorded: no significant improvement in obstructive sleep apnea”. In addition, the “inhibition of upper airway collapsibility” value in data set [2] is “dose-dependently inhibit upper airway collapsibility”. The “D90 of drug substance” value in data set [3] (micronized drug substance) is reported as “approximately 4.9 μm”. Also, the “D90 of drug substance” value in data set [3] (non micronized batch sieved with a 32 μm mesh) was “approximately 28 μm”. In data set [4], the “All grade TEAEs: Cough, %” value was “(50.0%)”; the “All grade TEAEs: Eye Disorders, %” value is given as “(57.9%)”; the “All grade TEAEs: Increased tearing, %” value is recorded as “(52.6%)”; the “All grade TEAEs: Nasal discomfort, %” value is given as “(36.8%)”. Moreover, in data set [4], the “All grade TEAEs: Respiratory, %” value was “(97.4%)”; the “All grade TEAEs: Rhinorrhea, %” value is given as “(18.4%)”; the “All grade TEAEs: Sneezing, %” value is “(84.2%)”; the “All grade TEAEs: Throat irritations, %” value is “(34.2%)”.
`COc1ccc(CC(=O)NCc2ccccc2-c2ccccc2C(=O)NCCc2cccnc2)cc1` [listing 1 of 2 here]: the “time for which stability was demonstrated” value in data set [5] (micronized, 2004 lot) is “up to 12 months”.
In the case of `COc1ccc(CC(=O)NCc2ccccc2-c2ccccc2C(=O)NCCc2cccnc2)cc1` [listing 2 of 2 here], the “time for which stability was demonstrated” value in data set [5] (lots manufactured in 2004) was “up to 36 months”.
In the case of `COc1ccc(CC(=O)NCc2ccccc2-c2ccccc2C(=O)NCCc2cccnc2)cc1` [Cmpd 1 batch L], in data set [3] (micronized drug substance), the “Particle size distribution d10” value is listed as “d10 0.80 μm”, the “Particle size distribution d50” value is reported as “d50 2.3 μm” and the “Particle size distribution d90” value was “d90 5.9 μm”.
For `COc1ccc(CC(=O)NCc2ccccc2-c2ccccc2C(=O)NCCc2cccnc2)cc1` [Cmpd 1 batch K], in that order: “d10 1.81 μm”, “d50 12.53 μm” and “d90 30.01 μm”.
For `COc1ccc(CC(=O)NCc2ccccc2-c2ccccc2C(=O)NCCc2cccnc2)cc1` [Cmpd 1 batch E], in that order: “d10 0.96 μm”, “d50 4.14 μm” and “d90 8.85 μm”.

Source of the values: patent US20260224544A1, “Intranasal Formulations for Treating Obstructive Sleep Apnea” (Mosanna Therapeutics AG, priority 2023, published 2026).
